pKi: −log10 of the molar value.
Target: T1, STAT5A (Homo sapiens, UniProt P42229)
T1 sequence (P42229 1-794): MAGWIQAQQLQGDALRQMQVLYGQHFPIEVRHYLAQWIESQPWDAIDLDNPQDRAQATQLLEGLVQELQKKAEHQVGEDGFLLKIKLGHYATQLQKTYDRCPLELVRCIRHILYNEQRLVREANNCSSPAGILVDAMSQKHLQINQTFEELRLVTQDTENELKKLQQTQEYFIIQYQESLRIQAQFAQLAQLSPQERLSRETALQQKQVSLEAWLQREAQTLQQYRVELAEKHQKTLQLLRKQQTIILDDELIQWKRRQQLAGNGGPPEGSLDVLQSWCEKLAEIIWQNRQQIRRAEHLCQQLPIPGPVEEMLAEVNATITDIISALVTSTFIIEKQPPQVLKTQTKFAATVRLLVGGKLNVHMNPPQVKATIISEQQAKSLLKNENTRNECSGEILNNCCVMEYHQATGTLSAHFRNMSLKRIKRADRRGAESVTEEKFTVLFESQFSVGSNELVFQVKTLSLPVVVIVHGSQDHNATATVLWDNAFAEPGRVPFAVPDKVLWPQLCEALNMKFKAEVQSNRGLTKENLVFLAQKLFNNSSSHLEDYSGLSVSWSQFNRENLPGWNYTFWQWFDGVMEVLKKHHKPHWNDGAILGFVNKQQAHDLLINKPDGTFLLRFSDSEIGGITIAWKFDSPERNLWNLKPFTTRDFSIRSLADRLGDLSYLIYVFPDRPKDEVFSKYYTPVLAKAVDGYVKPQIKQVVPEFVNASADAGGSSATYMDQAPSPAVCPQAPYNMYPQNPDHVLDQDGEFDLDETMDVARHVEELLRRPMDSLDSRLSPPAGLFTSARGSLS
Assay: Fluorescence polarization (FP) binding assay, STAT5A
Conditions: FP competition, 5 nM fluorescein-labeled tracer, 200 nM protein, PBS pH7.4
Description: Evaluation of the activity of the inhibitors may be accomplished by fluorescence polarization (FP) experiments. A representative general protocol is the following:
Fluorescence polarization (FP) experiments are performed in black round-bottom plates using the CLARIOstar microplate reader. To each well, fluorescein-labeled tracer and STAT5 or STAT6 protein are added in assay buffer. […] The inhibition constants are determined as the concentration of the STAT5 or STAT6 at which 50% of the ligand is bound.
Fluorescence polarization (FP) experiments were performed in 96-well, black round-bottom plates (Microfluor 2, Fisher Scientific) using the CLARIOstar microplate reader (BMG Labtech). To each well, 5 nM of fluoresceinlabeled tracer and 200 nM of STAT5 and/or STAT6 protein were added to a final volume of 100 μl in the assay buffer (PBS pH7.4+0.01% BGG+0.01% Tween-20, 2 mM DTT). The plate was mixed on a shaker for 15 m and incubated at room temperature for 1 h to reach equilibrium. […] All experimental data were analyzed using Prism 8.0 software (GraphPad Software), and the inhibition constants were determined by nonlinear curve fitting as the concentration of the STAT5 and/or STAT6 at which 50% of the ligand is bound.

Structure (SMILES) | pKi
CN(C)C(=O)CCN(C(=O)[C@@H]1CCCN1C(=O)[C@@H](NC(=O)c1cc2cc(C(F)(F)P(=O)(O)O)ccc2s1)C1CC1)c1ccc(-c2nccs2)cc1 [Compound 321, ((2-(((S)-1-cyclopropyl-2-((S)-2-((3-(dimethylamino)-3-oxopropyl)(4-(thiazol-2-yl)phenyl)carbamoyl)pyrrolidin-1-yl)-2-oxoethyl)carbamoyl)benzo[b]thiophen-5-yl)difluoromethyl)phosphonic acid] | 5.00 to 6.00
CN(C)C(=O)CCN(C(=O)[C@@H]1CCCN1C(=O)[C@@H](NC(=O)c1cc2cc(C(F)(F)P(=O)(O)O)ccc2s1)C1CCCCC1)c1ccc(-c2nccs2)cc1 [Compound 323, ((2-(((S)-1-cyclohexyl-2-((S)-2-((3-(dimethylamino)-3-oxopropyl)(4-(thiazol-2-yl)phenyl)carbamoyl)pyrrolidin-1-yl)-2-oxoethyl)carbamoyl)benzo[b]thiophen-5-yl)difluoromethyl)phosphonic acid] | 5.00 to 6.00
CN(C)C(=O)CCN(C(=O)[C@@H]1CCCN1C(=O)[C@@H](NC(=O)c1cc2cc(C(F)(F)P(=O)(O)O)ccc2s1)c1ccccc1)c1ccc(-c2nccs2)cc1 [Compound 324, ((2-(((S)-2-((S)-2-((3-(dimethylamino)-3-oxopropyl)(4-(thiazol-2-yl)phenyl)carbamoyl)pyrrolidin-1-yl)-2-oxo-1-phenylethyl)carbamoyl)benzo[b]thiophen-5-yl)difluoromethyl)phosphonic acid] | 5.00 to 6.00
CN(C)C(=O)CCN(C(=O)[C@@H]1CCCN1C(=O)[C@H](Cc1ccc(Br)cc1)NC(=O)c1cc2cc(C(F)(F)P(=O)(O)O)ccc2s1)c1ccc(-c2nccs2)cc1 [Compound 326, ((2-(((S)-3-(4-bromophenyl)-1-((S)-2-((3-(dimethylamino)-3-oxopropyl)(4-(thiazol-2-yl)phenyl)carbamoyl)pyrrolidin-1-yl)-1-oxopropan-2-yl)carbamoyl)benzo[b]thiophen-5-yl)difluoromethyl)phosphonic acid] | 5.00 to 6.00
CN(C)C(=O)CCN(C(=O)[C@@H]1CCCN1C(=O)[C@H](Cc1ccc(C(F)(F)F)cc1)NC(=O)c1cc2cc(C(F)(F)P(=O)(O)O)ccc2s1)c1ccc(-c2nccs2)cc1 [Compound 327, ((2-(((S)-1-((S)-2-((3-(dimethylamino)-3-oxopropyl)(4-(thiazol-2-yl)phenyl)carbamoyl)pyrrolidin-1-yl)-1-oxo-3-(4-(trifluoromethyl)phenyl)propan-2-yl)carbamoyl)benzo[b]thiophen-5-yl)difluoromethyl)phosphonic acid] | 5.00 to 6.00
CN(C)C(=O)CCN(C(=O)[C@@H]1CCCN1C(=O)[C@H](Cc1ccc2ccccc2c1)NC(=O)c1cc2cc(C(F)(F)P(=O)(O)O)ccc2s1)c1ccc(-c2nccs2)cc1 [Compound 329, ((2-(((S)-1-((S)-2-((3-(dimethylamino)-3-oxopropyl)(4-(thiazol-2-yl)phenyl)carbamoyl)pyrrolidin-1-yl)-3-(naphthalen-2-yl)-1-oxopropan-2-yl)carbamoyl)benzo[b]thiophen-5-yl)difluoromethyl)phosphonic acid] | 5.00 to 6.00

The next lines start with the values.

pKi | Structure (SMILES)
5.00 to 6.00 | CN(C(=O)[C@@H]1CCCCCN1C(=O)[C@@H](NC(=O)c1cc2cc(C(F)(F)P(=O)(O)O)ccc2s1)C(C)(C)C)c1ncc(-c2ccccc2)s1 [Compound 303, ((2-(((S)-3,3-dimethyl-1-((S)-2-(methyl(5-phenylthiazol-2-yl)carbamoyl)azepan-1-yl)-1-oxobutan-2-yl)carbamoyl)benzo[b]thiophen-5-yl)difluoromethyl)phosphonic acid]
5.00 to 6.00 | CCN(C(=O)[C@@H]1CCCCCN1C(=O)[C@@H](NC(=O)c1cc2cc(C(F)(F)P(=O)(O)O)ccc2s1)C(C)(C)C)c1ncc(-c2ccccc2)s1 [Compound 304, ((2-(((S)-1-((S)-2-(ethyl(5-phenylthiazol-2-yl)carbamoyl)azepan-1-yl)-3,3-dimethyl-1-oxobutan-2-yl)carbamoyl)benzo[b]thiophen-5-yl)difluoromethyl)phosphonic acid]
6.00 to 7.00 | CCC(CC)[C@H](NC(=O)c1cc2cc(C(F)(F)P(=O)(O)O)ccc2s1)C(=O)N1CCC[C@H]1C(=O)N(CCC(=O)N(C)C)c1ccc(-c2nccs2)cc1 [Compound 322, ((2-(((S)-1-((S)-2-((3-(dimethylamino)-3-oxopropyl)(4-(thiazol-2-yl)phenyl)carbamoyl)pyrrolidin-1-yl)-3-ethyl-1-oxopentan-2-yl)carbamoyl)benzo[b]thiophen-5-yl)difluoromethyl)phosphonic acid]
6.00 to 7.00 | CN(C)C(=O)CCN(C(=O)[C@@H]1CCCN1C(=O)[C@H](Cc1ccc(F)cc1)NC(=O)c1cc2cc(C(F)(F)P(=O)(O)O)ccc2s1)c1ccc(-c2nccs2)cc1 [Compound 325, ((2-(((S)-1-((S)-2-((3-(dimethylamino)-3-oxopropyl)(4-(thiazol-2-yl)phenyl)carbamoyl)pyrrolidin-1-yl)-3-(4-fluorophenyl)-1-oxopropan-2-yl)carbamoyl)benzo[b]thiophen-5-yl)difluoromethyl)phosphonic acid]
6.00 to 7.00 | CN(C)C(=O)CCN(C(=O)[C@@H]1CCCN1C(=O)[C@H](CCc1ccccc1)NC(=O)c1cc2cc(C(F)(F)P(=O)(O)O)ccc2s1)c1ccc(-c2nccs2)cc1 [Compound 328, ((2-(((S)-1-((S)-2-((3-(dimethylamino)-3-oxopropyl)(4-(thiazol-2-yl)phenyl)carbamoyl)pyrrolidin-1-yl)-1-oxo-4-phenylbutan-2-yl)carbamoyl)benzo[b]thiophen-5-yl)difluoromethyl)phosphonic acid]
